# Results taken from PubChem BioAssay AID328 (DTP/NCI, 2004).
# Inconclusive results and toxic doses are left out. Residues, ends and D or L forms follow the SMILES beside them. *: point of attachment. Cbz = O=C(OCc1ccccc1)*
# Test system: BDF1 mice, P388 leukemia ip, median survival T/C
# Test: NCI In Vivo Anticancer Drug Screen. Data for tumor model P388 Leukemia (intraperitoneal) in B6D2F1 (BDF1) mice
# Conditions: endpoint: median survival time, higher = longer survival
# Summary of the method: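 Each value expresses how treatment altered survival: treated-mouse outcome over vehicle-mouse outcome, both groups bearing the transplanted tumour.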
# [1] = dose: 100.0 mg/kg/injection, schedule: Q04DX003 (ip), vehicle: saline with Tween-80
# [2] = dose: 200.0 mg/kg/injection, schedule: Q04DX003 (ip), vehicle: saline with Tween-80
# [3] = dose: 400.0 mg/kg/injection, schedule: Q04DX003 (ip), vehicle: saline with Tween-80
# [4] = dose: 50.0 mg/kg/injection, schedule: Q01DX009 (ip), vehicle: other
# [5] = dose: 25.0 mg/kg/injection, schedule: Q01DX009 (ip), vehicle: saline
# [6] = dose: 50.0 mg/kg/injection, schedule: Q01DX009 (ip), vehicle: saline
# [7] = dose: 100.0 mg/kg/injection, schedule: Q01DX009 (ip), vehicle: saline
# [8] = dose: 100.0 mg/kg/injection, schedule: Q04DX003 (ip), vehicle: saline
# [9] = dose: 200.0 mg/kg/injection, schedule: Q01DX009 (ip), vehicle: saline
# [10] = dose: 200.0 mg/kg/injection, schedule: Q04DX003 (ip), vehicle: saline
# [11] = dose: 400.0 mg/kg/injection, schedule: Q01DX009 (ip), vehicle: saline
# [12] = dose: 400.0 mg/kg/injection, schedule: Q04DX003 (ip), vehicle: saline
# [13] = dose: 12.5 mg/kg/injection, schedule: Q01DX009 (ip), vehicle: saline
# [14] = dose: 25.0 mg/kg/injection, schedule: Q04DX003 (ip), vehicle: saline
# [15] = dose: 50.0 mg/kg/injection, schedule: Q04DX003 (ip), vehicle: saline
smiles,measurement,setting,value
CC[n+]1ccc(Nc2ccc(NC(=O)c3ccc(Nc4cc[n+](CC)c5ccc(N)cc45)cc3)cc2)cc1,T/C,"dose: 0.02 mg/kg/injection, schedule: Q01DX010 (ip), vehicle: saline",115 % of control
same,T/C,"dose: 0.1 mg/kg/injection, schedule: Q01DX010 (ip), vehicle: saline",110 % of control
same,T/C,"dose: 0.5 mg/kg/injection, schedule: Q01DX009 (ip), vehicle: water",154 % of control
same,T/C,"dose: 0.5 mg/kg/injection, schedule: Q01DX010 (ip), vehicle: saline",170 % of control
same,T/C,"dose: 1.0 mg/kg/injection, schedule: Q01DX009 (ip), vehicle: water",158 % of control
same,T/C,"dose: 1.0 mg/kg/injection, schedule: Q01DX010 (ip), vehicle: saline",195 % of control
same,T/C,"dose: 2.0 mg/kg/injection, schedule: Q01DX009 (ip), vehicle: water",212 % of control
same,T/C,"dose: 2.0 mg/kg/injection, schedule: Q01DX010 (ip), vehicle: saline",275 % of control
same,T/C,"dose: 4.0 mg/kg/injection, schedule: Q01DX009 (ip), vehicle: water",250 % of control
same,T/C,"dose: 4.0 mg/kg/injection, schedule: Q01DX010 (ip), vehicle: saline",120 % of control
same,T/C,"dose: 8.0 mg/kg/injection, schedule: Q01DX009 (ip), vehicle: water",116 % of control
same,T/C,"dose: 8.0 mg/kg/injection, schedule: Q01DX010 (ip), vehicle: saline",100 % of control
CC(C)C(NC(=O)C1CCCN1C(=O)OCc1ccccc1)C(=O)O (stereo not drawn) (Cbz-Pro-Val-OH; configuration not given here),T/C,[1],104 % of control
same,T/C,[2],100 % of control
same,T/C,[3],100 % of control
C=CCCCCCCCCCCCCCCCC (tested in a mixture with another compound),T/C,[4],113 % of control
S=c1cc(-c2ccc(Cl)cc2)ss1,T/C,[5],123 % of control
same,T/C,[6],101 % of control
same,T/C,[7],107 % of control
same,T/C,[8],107 % of control
same,T/C,[9],107 % of control
same,T/C,[10],110 % of control
same,T/C,[11],123 % of control
same,T/C,[12],100 % of control
COc1cc2c3c(c1)C(O)CC[N+]3(C)CCC2 (stereo unspecified),T/C,[13],100 % of control
same,T/C,"dose: 12.5 mg/kg/injection, schedule: Q04DX003 (ip), vehicle: saline",109 % of control
same,T/C,[5],110 % of control
same,T/C,[14],109 % of control
same,T/C,[6],100 % of control
same,T/C,[15],109 % of control
O=C1CCCc2ccccc2N1,T/C,"dose: 25.0 mg/kg/injection, schedule: Q01DX009 (ip), vehicle: Klucel (hydroxypropylcellulose) (HPC)",100 % of control
same,T/C,"dose: 50.0 mg/kg/injection, schedule: Q01DX009 (ip), vehicle: Klucel (hydroxypropylcellulose) (HPC)",95 % of control
same,T/C,"dose: 100.0 mg/kg/injection, schedule: Q01DX009 (ip), vehicle: Klucel (hydroxypropylcellulose) (HPC)",91 % of control
same,T/C,"dose: 100.0 mg/kg/injection, schedule: Q04DX003 (ip), vehicle: Klucel (hydroxypropylcellulose) (HPC)",95 % of control
same,T/C,"dose: 200.0 mg/kg/injection, schedule: Q01DX009 (ip), vehicle: Klucel (hydroxypropylcellulose) (HPC)",91 % of control
same,T/C,"dose: 200.0 mg/kg/injection, schedule: Q04DX003 (ip), vehicle: Klucel (hydroxypropylcellulose) (HPC)",100 % of control
same,T/C,"dose: 400.0 mg/kg/injection, schedule: Q01DX009 (ip), vehicle: Klucel (hydroxypropylcellulose) (HPC)",91 % of control
same,T/C,"dose: 400.0 mg/kg/injection, schedule: Q04DX003 (ip), vehicle: Klucel (hydroxypropylcellulose) (HPC)",100 % of control
O=C(O)CCCC1CCC(=O)CC1,T/C,[6],90 % of control
same,T/C,"dose: 100.0 mg/kg/injection, schedule: Q01DX001 (ip), vehicle: other",95 % of control
same,T/C,[7],90 % of control
same,T/C,[8],104 % of control
same,T/C,"dose: 200.0 mg/kg/injection, schedule: Q01DX001 (ip), vehicle: other",104 % of control
same,T/C,[9],110 % of control
same,T/C,[10],104 % of control
same,T/C,"dose: 400.0 mg/kg/injection, schedule: Q01DX001 (ip), vehicle: other",120 % of control
same,T/C,[11],110 % of control
same,T/C,[12],109 % of control
CCCCNC(C)(C)CSSSCC(C)(C)NCCCC,T/C,"dose: 6.25 mg/kg/injection, schedule: Q01DX009 (ip), vehicle: other",110 % of control
same,T/C,"dose: 12.5 mg/kg/injection, schedule: Q01DX009 (ip), vehicle: other",86 % of control
same,T/C,"dose: 12.5 mg/kg/injection, schedule: Q04DX003 (ip), vehicle: other",98 % of control
same,T/C,"dose: 25.0 mg/kg/injection, schedule: Q01DX009 (ip), vehicle: other",114 % of control
same,T/C,"dose: 25.0 mg/kg/injection, schedule: Q04DX003 (ip), vehicle: other",117 % of control
same,T/C,[4],110 % of control
same,T/C,"dose: 50.0 mg/kg/injection, schedule: Q04DX003 (ip), vehicle: other",117 % of control
same,T/C,"dose: 100.0 mg/kg/injection, schedule: Q04DX003 (ip), vehicle: other",112 % of control
CN1CC=C(N2CCOCC2)CC1,T/C,[14],120 % of control
same,T/C,[15],120 % of control
same,T/C,[8],120 % of control
CN(C)c1ccc(/C=C/c2ccc3ccccc3[n+]2C)cc1,T/C,[13],88 % of control
Cc1cc(N(C)C)cc(C)c1N=Nc1cc[n+]([O-])cc1,T/C,"dose: 50.0 mg/kg/injection, schedule: Q01DX009 (ip), vehicle: saline with Tween-80",104 % of control
same,T/C,"dose: 100.0 mg/kg/injection, schedule: Q01DX009 (ip), vehicle: saline with Tween-80",124 % of control
CC(=O)CC(=O)Nc1ccc([N+](=O)[O-])cc1,T/C,"dose: 50.0 mg/kg/injection, schedule: Q04DX003 (ip), vehicle: saline with Tween-80",109 % of control
same,T/C,[1],109 % of control
same,T/C,[2],95 % of control
same,T/C,[3],100 % of control
